Laboratory results reported in PMC8703934, “Lytic Polysaccharide Monooxygenase from Talaromyces amestolkiae with an Enigmatic Linker-like Region: The Role of This Enzyme on Cellulose Saccharification” (International Journal of Molecular Sciences, 2021).

Tests used:
TamAA9A-CD = molecular target: T1, TamAA9A-CD (Talaromyces amestolkiae, UniProt A0A364LE17); test: spectrophotometric oxidation to coerulignone at […] nm, Michaelis-Menten fit; assay type: biochemical; details: 2 mM H2O2 as co-substrate; copper-saturated enzyme; 100 mM sodium phosphate pH 6; substrate range 1.25-100 mM
T1 construct: gene BHQ10_010049; native signal peptide (removed), no tag mentioned; secreted from Pichia pastoris X-33; theoretical 24 kDa, about 30 kDa glycosylated; copper-saturated; mature N-terminus HGYVQN from primer
T1 sequence (A0A364LE17 entry or part of it): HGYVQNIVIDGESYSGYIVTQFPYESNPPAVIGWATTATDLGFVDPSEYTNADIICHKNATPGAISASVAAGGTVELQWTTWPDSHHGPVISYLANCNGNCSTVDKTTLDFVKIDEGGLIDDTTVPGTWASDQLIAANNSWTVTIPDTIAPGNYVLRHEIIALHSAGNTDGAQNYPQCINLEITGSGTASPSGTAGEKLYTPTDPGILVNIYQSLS

TamAA9A-CBM = molecular target: T2, TamAA9A-CBM (Talaromyces amestolkiae, UniProt A0A364LE17); test: as above; assay type: biochemical; details: 2 mM H2O2 as co-substrate; copper-saturated enzyme; 100 mM sodium phosphate pH 6; substrate range 1.25-100 mM; printed kcat/Km (0.003) does not match printed kcat and Km
T2 construct: gene BHQ10_010049; native signal peptide (removed); secreted from Pichia pastoris X-33; theoretical 34 kDa, 75-100 kDa glycosylated; copper-saturated; with Beta-glucosidase BGL-2 (CBM1 domain only)
T2 sequence (A0A364LE17 entry or part of it): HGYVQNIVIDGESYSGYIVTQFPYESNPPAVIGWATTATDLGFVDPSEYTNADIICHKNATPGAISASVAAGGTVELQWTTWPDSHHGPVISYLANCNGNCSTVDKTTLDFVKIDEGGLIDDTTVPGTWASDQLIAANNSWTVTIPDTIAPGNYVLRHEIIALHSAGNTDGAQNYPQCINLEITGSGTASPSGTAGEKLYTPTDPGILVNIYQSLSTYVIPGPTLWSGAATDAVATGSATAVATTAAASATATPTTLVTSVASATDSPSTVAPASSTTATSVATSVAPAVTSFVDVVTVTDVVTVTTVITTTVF

Km (TamAA9A-CD): 87.7 ± 0.7 mM
Km (TamAA9A-CBM): 85.68 ± 0.7 mM
Compound: COc1cccc(OC)c1O [2,6-DMP, 2,6-dimethoxyphenol]
